Measured values from patent publication US4346094A, “3-Aryl-5-isothiazolecarboxylic acids and related compounds used to lower uric acid levels” (Eli Lilly and Company, priority 1980, dated 1982).
Read-outs that look alike come from different tables or passages of the source.

Assays:
[1] = molecular target: T1, xanthine oxidase (Bos taurus, UniProt P80457); experiment: in vitro xanthine oxidase assay (rate of uric acid formation from xanthine); type: biochemical
T1 construct: purchased Sigma Chemical Company, St. Louis, Mo; host or cells: milk (grade III, chromatographically purified)
T1 sequence (P80457 whole entry): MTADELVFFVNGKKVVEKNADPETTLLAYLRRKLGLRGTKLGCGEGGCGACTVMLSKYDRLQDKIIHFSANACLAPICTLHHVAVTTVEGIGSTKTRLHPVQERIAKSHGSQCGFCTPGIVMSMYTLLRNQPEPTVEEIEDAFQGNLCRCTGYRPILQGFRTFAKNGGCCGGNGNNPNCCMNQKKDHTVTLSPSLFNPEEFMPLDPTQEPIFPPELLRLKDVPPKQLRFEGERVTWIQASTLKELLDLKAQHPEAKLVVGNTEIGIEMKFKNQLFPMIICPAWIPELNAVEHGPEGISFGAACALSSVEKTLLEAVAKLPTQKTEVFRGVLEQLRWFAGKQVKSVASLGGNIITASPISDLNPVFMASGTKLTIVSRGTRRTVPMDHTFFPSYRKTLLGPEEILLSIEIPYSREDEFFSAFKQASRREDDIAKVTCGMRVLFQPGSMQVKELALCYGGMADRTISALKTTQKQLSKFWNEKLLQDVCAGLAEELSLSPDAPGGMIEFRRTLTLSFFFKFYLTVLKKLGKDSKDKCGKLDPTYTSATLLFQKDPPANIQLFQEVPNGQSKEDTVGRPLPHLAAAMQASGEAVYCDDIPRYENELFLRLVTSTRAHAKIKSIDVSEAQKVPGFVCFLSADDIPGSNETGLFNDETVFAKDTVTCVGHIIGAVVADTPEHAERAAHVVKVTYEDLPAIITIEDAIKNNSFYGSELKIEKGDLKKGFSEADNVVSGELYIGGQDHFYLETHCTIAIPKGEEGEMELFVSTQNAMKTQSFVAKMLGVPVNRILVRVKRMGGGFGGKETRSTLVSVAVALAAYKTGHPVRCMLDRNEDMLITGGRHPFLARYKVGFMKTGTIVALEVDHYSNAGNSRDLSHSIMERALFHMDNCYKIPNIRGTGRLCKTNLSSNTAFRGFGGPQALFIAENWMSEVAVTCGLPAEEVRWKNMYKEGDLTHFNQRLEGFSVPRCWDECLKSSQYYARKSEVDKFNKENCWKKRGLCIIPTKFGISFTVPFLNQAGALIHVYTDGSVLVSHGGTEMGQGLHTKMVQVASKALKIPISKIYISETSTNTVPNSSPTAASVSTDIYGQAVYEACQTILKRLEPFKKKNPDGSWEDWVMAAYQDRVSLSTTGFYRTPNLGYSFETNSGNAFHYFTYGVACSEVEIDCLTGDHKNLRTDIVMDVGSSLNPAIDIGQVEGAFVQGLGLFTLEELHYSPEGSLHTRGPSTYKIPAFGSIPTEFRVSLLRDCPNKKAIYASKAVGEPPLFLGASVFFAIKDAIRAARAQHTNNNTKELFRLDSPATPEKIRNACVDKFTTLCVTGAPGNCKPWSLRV
Procedure: Since uric acid is produced by the oxidation of, first, hypoxanthine to xanthine and, second, of xanthine to uric acid via the enzyme, xanthine oxidase, an inhibitor of xanthine oxidase in vivo would obviously decrease the uric acid concentrations in the blood.
Xanthine oxidase activity was measured at room temperature by the rate of uric acid formation from xanthine substrate. In a total volume of 1 ml., the incubation mixture contained 50 micromoles of potassium phosphate buffer at pH 7.4, 0.05 micromoles of xanthine and 0.01 units of enzyme preparation (chromatographically purified milk xanthine oxidase, grade III, obtained from Sigma Chemical Company, St. Louis, Mo.). The absorbence change at 292 nm was recorded by a Gilford recording spectrophotometer and the uric acid formed was calculated using an extinction coefficient of 12 mM^-1 Cm^-1 at 292 nm.

[2] = test system: plasma uric acid; experiment: in vivo lowering of plasma uric acid in rats, oral (ED50); details: Rattus norvegicus, read-out: ED50 (dose which reduces plasma level of uric acid by one-half)
Procedure: (§1) All of the compounds corresponding to formula I above which applicants have prepared are active in vivo in lowering plasma uric acid levels. […] The first method, the spectrofluorometric method, was modified from the procedure of Sumi et al., Clinica. Chimica. Acta., 73, 233 (1976). Rats were sacrificed by decapitation and their blood collected into vacutainer tubes containing heparin via heparinized glass funnels. The blood was centrifuged for 8 minutes at 4000 rpm after which time the plasma was separated and diluted 1:1 with water. Plasma protein was precipitated by addition of acetic acid to a final concentration of 0.007 molar and boiling the resulting mixture for 5 minutes in Sorval tubes. Clear deproteinized plasma was obtained after centrifugation of the resulting plasma for 30 minutes at 25,000 rpm. Uric acid was assayed as follows: 0.2 ml. aliquots of the clear deproteinized plasma were mixed with 120λ of uricase (0.045 mu/ml.) and incubated for 30 minutes at 27° C. 1.0 ml. of a p-hydroxyphenylacetic acid buffer was added. Samples obtained from feeding rats or dogs serial doses of the compound under test were incubated with the above buffer solution for 30 minutes at 27° C. Fluorescence of the solution was measured in quartz tubes using an Aminco Bowman-Spectrofluorimeter having excitation of 321 nm and emission at 412 nm. Five uric acid standards from 6-30 micromolar were assayed for each test and each standard yielded a linear curve.
The second method was called the HPLC-EC Detection method. Here, blood plasma was collected from rats as described above and from dogs in heparinized syringes from the cefalic vein in the forearm and centrifuged with Sure-Sep to separate plasma. Deproteninized plasma was prepared in each instance by first diluting one volume of plasma with one volume of an internal standard solution, 4 mcg./ml., and then addition of two volumes of 5% trichloroacetic acid. Standards were added to control plasma in the range of 0-8 mcg./ml. of uric acid. Samples obtained by feeding graded doses of drug under test to dogs or rats were mixed for 30 seconds and then centrifuged in an Eppendorf microcentrifuge. Supernates were diluted 1:10 in column buffer and assayed for uric acid. Internal standards used were 3-methyluric acid for the rat samples and 3,9-dimethyluric acid for dog samples. Assays were performed as follows using a Bioanalytic Systems Inc. LC-44 analyser and an electrochemical detector system based on an Altex model 110 pump coupled with a CP-O carbon paste electrodetector. Samples for assay were put into a DuPont 834 autosampler and automatically injected into a laboratory packed stainless steel column (4.1 mm id, 1/4" od 25 cm.1) containing reverse phase packing (sperisorb. O.D. 5μ Regis Chemical Co.). The column buffers employed were 0.1 M disodium phosphate, 0.05 M citric acid and 10% methanol for rat samples; 0.1 M disodium phosphate, 10% methanol and citric acid titrated at pH 6.5 for dog samples. The same internal standards were employed as before. Retention times for uric acid, 3-methyluric acid and 3,9-dimethyluric acid were established. Uric acid levels were then calculated from peak areas by computer analysis. Table V which follows gives the oral ED50 in rats for a group of the preferred compounds of this invention (those in which the 3-position of the isothiazole ring carries a 3-trifluoromethylphenyl group). […]

[3] = oral acute toxicity in mice (LD50); details: mouse, in vivo; for LD50: oral, mice, read-out: LD50 (dose which kills one-half of the animals); for therapeutic index (LD50/ED50): oral LD50 mice / oral ED50 rats, read-out: Ratio of LD50 to ED50
Source text: The compounds represented by the above formula are also relatively non-toxic. In column 3 of Table V are listed the oral LD50 for mice in mg. per kg. for each of the compounds of column 1 (dose which kills one-half of the animals). Finally, column 4 in Table V gives the ratio of LD50 to ED50. It will be seen that the ratio of the LD50 to the ED50 is quite high, giving a substantial margin of safety for using the compounds of this invention in treating gout in mammals, particularly humans.

[4] = oral administration of ester and amides, percent inhibition in vivo
Procedure: as §1
The second method was called the HPLC-EC Detection method. Here, blood plasma was collected from rats as described above and from dogs in heparinized syringes from the cefalic vein in the forearm and centrifuged with Sure-Sep to separate plasma. Deproteninized plasma was prepared in each instance by first diluting one volume of plasma with one volume of an internal standard solution, 4 mcg./ml., and then addition of two volumes of 5% trichloroacetic acid. Standards were added to control plasma in the range of 0-8 mcg./ml. of uric acid. […] Uric acid levels were then calculated from peak areas by computer analysis. […]

[5] = milk xanthine oxidase 0.01 units, 0.05 micromoles xanthine in 1 ml, pH 7.4, room temperature, 292 nm, read-out: I50 (concentration of drug which inhibits 50% of the oxidation of xanthine to uric acid by the xanthine oxidase preparation) (converted)

| Percent Inhibition ([4]; oral dosage 50 mg.kg) [%] | Percent Inhibition ([4]; oral dosage 25 mg.kg) [%] | SMILES | IC50 [1, 5] [nM] | ED50 [2] [mg/kg] | LD50 [3] [mg/kg] | IC50 [1] [nM] | therapeutic index (LD50/ED50) [3] |
| --- | --- | --- | --- | --- | --- | --- | --- |
| – | – | Nc1c(-c2cccc(C(F)(F)F)c2)nsc1C(=O)O [R=3-CF3, R^1=H, 3-(3-trifluoromethylphenyl)-4-amino-5-isothiazolecarboxylic acid] | 76.3 | 17.5 | 798 ± 66 | – | – |
| – | – | O=C(O)c1snc(-c2cccc(C(F)(F)F)c2)c1Br [R=3-CF3, X=Br, 3-(3-trifluoromethylphenyl)-4-bromo-5-isothiazolecarboxylic acid] | – | 5.2 | ~260 | 51.1 | ~50 |
| – | – | O=C(O)c1snc(-c2cccc(C(F)(F)F)c2)c1Cl [R=3-CF3, X=Cl, 3-(3-trifluoromethylphenyl)-4-chloro-5-isothiazolecarboxylic acid] | – | 6.4 | 138 ± 12 | 32.5 | 21.6 |
| – | – | O=C(O)c1cc(-c2cccc(C(F)(F)F)c2)ns1 [R=3-CF3, X=H, 3-(3-trifluoromethylphenyl)-5-isothiazolecarboxylic acid] | 54.9 | 15 | 201 ± 13 | – | 13.4 |
| – | – | O=C(O)c1snc(-c2cccc(C(F)(F)F)c2)c1O [R=3-CF3, X=OH, 3-(3-trifluoromethylphenyl)-4-hydroxy-5-isothiazolecarboxylic acid] | 25.6 | 18 | 727 ± 35 | – | 40 |
| 13 | – | NC(=O)c1snc(-c2cccc(C(F)(F)F)c2)c1N [R=NH2, 3-(3-trifluoromethylphenyl)-4-amino-5-isothiazolecarboxamide] | – | – | – | – | – |
| – | 32 | CNC(=O)c1snc(-c2cccc(C(F)(F)F)c2)c1N [R=NHCH3, N-methyl 3-(3-trifluoromethylphenyl)-4-amino-5-isothiazolecarboxamide] | – | – | – | – | – |
| – | 64 | COC(=O)c1snc(-c2cccc(C(F)(F)F)c2)c1N [R=OCH3, Methyl 3-(3-trifluoromethylphenyl)-4-amino-5-isothiazolecarboxylate] | – | – | – | – | – |
